Reference: patent US20050239656A1, “Pyridine compounds or salts thereof and herbicides containing the same” (priority 2002, published 2005)

Experiments:
barnyardgrass [1] = assay: Test Example 2: soil surface treatment, upland pot test; format: in vivo, Echinochloa crus-galli L.; conditions: active ingredient 500 g/ha
In short: (§1)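 Visual growth-control ratings, from 0 (like the non-treated plot) to 100 (total kill), were made between days 20 and 28 after a soil-surface spray. The compound, formulated as wettable powder or emulsifiable concentrate and diluted at 1,500 L/ha, went on one day post-sowing in upland-soil pots of 1/170,000 ha.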

crabgrass = assay: as above; format: in vivo, Digitaria sanguinalis L.; conditions: active ingredient 500 g/ha
In short: as §1

green foxtail = assay: as above; format: in vivo, Setaria viridis L.; conditions: active ingredient 500 g/ha
In short: as §1

redroot pigweed = assay: as above; format: in vivo, Amaranthus retroflexus L.; conditions: active ingredient 500 g/ha
In short: as §1

prickly sida = assay: as above; format: in vivo, Sida spinosa L.; conditions: active ingredient 500 g/ha
In short: as §1

velvetleaf = assay: as above; format: in vivo, Abutilon theophrasti MEDIC.; conditions: active ingredient 500 g/ha
In short: as §1

rice = assay: as above; format: in vivo, Oryza sativa L.; conditions: active ingredient 500 g/ha
In short: as §1

corn = assay: as above; format: in vivo, Zea mays L.; conditions: active ingredient 500 g/ha
In short: as §1

soybean = assay: as above; format: in vivo, Glycine max Merr.; conditions: active ingredient 500 g/ha
In short: as §1

barnyardgrass [2] = assay: Test Example 3: paddy pot test, application under submerged conditions; format: in vivo, Echinochloa crus-galli L.; conditions: active ingredient 250 g/ha; submerged application at 0.5 leaf stage; visually observed 14 days after application; 0 = non-treated, 100 = complete kill
In short: (§2)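 Barnyardgrass and japanese bulrush sown in flooded paddy soil in greenhouse pots, japanese ribbon wapato tubers planted 1–2 days later; water depth kept at 3–4 cm. Diluted wettable powder or emulsifiable concentrate applied into water at 0.5-leaf or primary-leaf stage at set active-ingredient doses. Growth control scored visually at 14 days, 0 (untreated) to 100% (complete kill).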

japanese bulrush = assay: as above; format: in vivo, Scirpus juncoides; conditions: active ingredient 250 g/ha; submerged application at 0.5 leaf stage; visually observed 14 days after application; 0 = non-treated, 100 = complete kill
In short: as §2

japanese ribbon wapato = assay: as above; format: in vivo, Sagittaria pygniaea; conditions: active ingredient 250 g/ha; submerged application at primary leaf stage; visually observed 14 days after application; 0 = non-treated, 100 = complete kill
In short: as §2

rice (var. Nihonbare) = assay: Test Example 3: paddy pot test, transplanted rice; format: in vivo, Oryza sativa L.; conditions: active ingredient 250 g/ha, applied 4th day after transplantation, visually observed 21st day after application, 0 = non-treated, 100 = complete kill
In short: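 Rice (var. Nihonbare) at 2 leaf stage transplanted 3 cm deep into puddled paddy soil under 3–4 cm flooding; on day 4 after transplanting, diluted wettable powder or emulsifiable concentrate applied by pipette under submerged conditions at a set active-ingredient dose. Growth scored visually 21 days after application, 0 (untreated) to 100 (complete kill) %.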

[3] = observed day 21, 0 = non-treated, 100 = complete kill

Structure (SMILES)	Growth controlling degree (%) Barnyardgrass (barnyardgrass [1]; [3]) [%]	Growth controlling degree (%) Crabgrass (crabgrass; [3]) [%]	Growth controlling degree (%) Green foxtail (green foxtail; [3]) [%]	Growth controlling degree (%) Redroot pigweed (redroot pigweed; [3]) [%]	Growth controlling degree (%) Prickly sida (prickly sida; [3]) [%]	Growth controlling degree (%) Velvetleaf (velvetleaf; [3]) [%]	Growth controlling degree (%) Rice (rice; [3]) [%]	Growth controlling degree (%) Barnyardgrass (barnyardgrass [2]) [%]	Growth controlling degree (%) Japanese bulrush (japanese bulrush) [%]	Growth controlling degree (%) Japanese ribbon wapato (japanese ribbon wapato) [%]	Growth controlling degree (%) Rice (rice (var. Nihonbare)) [%]	Growth controlling degree (%) Barnyardgrass (barnyardgrass [1]; observed 20th to 28th day) [%]	Growth controlling degree (%) Crabgrass (crabgrass; observed 20th to 28th day) [%]	Growth controlling degree (%) Green foxtail (green foxtail; observed 20th to 28th day) [%]	Growth controlling degree (%) Redroot pigweed (redroot pigweed; observed 20th to 28th day) [%]	Growth controlling degree (%) Prickly sida (prickly sida; observed 20th to 28th day) [%]	Growth controlling degree (%) Velvetleaf (velvetleaf; observed 20th to 28th day) [%]	Growth controlling degree (%) Rice (rice; observed 20th to 28th day) [%]	Growth controlling degree (%) Corn (corn; observed 20th to 28th day) [%]	Growth controlling degree (%) Soyabean (soybean; observed 20th to 28th day) [%]	other results
CC(C)C(c1cnccc1C(F)(F)F)N(C)C(=O)COc1cc(F)ccc1F (centres unmarked) [Compound I-245]	90	80	80	50	70	0	35	100	95	70	10	–	–	–	–	–	–	–	–	–	Growth controlling degree (%) Corn (corn; [3]): 50%; Growth controlling degree (%) Soyabean (soybean; [3]): 40%
CC(C)C(c1cnccc1C(F)(F)F)N(C)C(=O)COc1ccc(F)cc1F (centres unmarked) [Compound I-246]	98	95	98	50	80	30	20	100	98	70	10	–	–	–	–	–	–	–	–	–	Growth controlling degree (%) Corn (corn; [3]): 40%; Growth controlling degree (%) Soyabean (soybean; [3]): 40%
CC(C)C(c1cnccc1Cl)N(C)C(=O)Cc1ccc(Cl)cc1 (centres unmarked) [I-82]	–	–	–	–	–	–	–	98	98	0	30	80	90	70	60	0	0	30	10	0	–
Cc1cccc(CC(=O)N(C)C(c2cnccc2C(F)(F)F)C(C)C)c1 (centres unmarked) [I-87]	–	–	–	–	–	–	–	100	90	70	0	100	98	95	85	100	70	0	40	0	–
Cc1ccc(CC(=O)N(C)C(c2cnccc2C(F)(F)F)C(C)C)cc1 (centres unmarked) [I-94]	–	–	–	–	–	–	–	100	98	90	0	100	100	100	98	100	80	10	10	0	–
